The text below walks through data of patent publication US20240239775A1, “FXR REGULATOR, PREPARATION METHOD THEREFOR, PHARMACEUTICAL COMPOSITION THEREOF AND USE THEREOF” (QINGDAO RUIJI MEDICAL TECHNOLOGY CO., LTD., priority 2021, published 2024).

SMILES strings stand for the structures.

The IC50 is the midpoint of a concentration-inhibition curve. The low end stands for inhibition by little substance, the high end for a need for much substance.

The target of the assay is T1, FXR (Homo sapiens, UniProt Q96RI1).
T1 construct: 5 μL of 20 nM FXR-LBD Complete Coregulator buffer G; purchased ThermoFisher PV4833
T1 sequence (Q96RI1 262-486 limits assumed): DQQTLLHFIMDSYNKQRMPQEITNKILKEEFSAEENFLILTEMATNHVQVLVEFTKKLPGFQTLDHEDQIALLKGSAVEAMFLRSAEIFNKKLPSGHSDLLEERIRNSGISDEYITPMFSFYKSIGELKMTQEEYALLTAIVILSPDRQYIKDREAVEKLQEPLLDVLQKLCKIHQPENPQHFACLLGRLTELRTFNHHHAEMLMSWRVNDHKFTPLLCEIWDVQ
In words: FXR antagonist screening by TR-FRET (LanthaScreen TR-FRET FXR co-activation assay kit). Format: biochemical. The following applies: Table 1.1, FXR antagonistic activity; TR-FRET with CDCA; geometric means of at least two independent runs. Put shortly:
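FXR-LBD (20 nM working solution) mixed with compound, CDCA (200 μM working solution) as agonist, Fluorescein-SRC2-2 and Tb-anti-GST antibody in Coregulator buffer G; 10 h at room temperature. Coactivator recruitment read by TR-FRET, triplicate wells.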
(In general: TR-FRET usually uses a lanthanide donor and a delayed reading to cut background.)
`CCOC(=O)c1oc2ccc(S(=O)(=O)N(CCc3ccccc3)Cc3ccc(-c4ccccc4)cc3)cc2c1C` [Example M4-82] gave an IC50 of 50 to 100 µM.
`CCOC(=O)c1oc2ccc(S(=O)(=O)N(CCc3ccccc3)Cc3ccc(-c4ccccc4C#N)cc3)cc2c1C` [Example M4-83, ethyl 3-methyl-5-(N-((2′-cyano-[1,1′-biphenyl]-4-yl)methyl)-N-phenethylsulfamoyl)benzofuran-2-carboxylate] gave an IC50 of 50 to 100 µM.
Then `CCOC(=O)c1oc2ccc(S(=O)(=O)N(CCc3ccccc3)Cc3ccc(-c4ccccc4C(=O)OC(C)(C)C)cc3)cc2c1C` [Example M4-84, ethyl 3-methyl-5-(N-((2′-(tert-butoxycarbonyl)-[1,1′-biphenyl]-4-yl)methyl)-N-phenethylsulfamoyl)benzofuran-2-carboxylate], with 50 to 100 µM.
Then `CCOC(=O)c1oc2ccc(S(=O)(=O)N(CCc3ccccc3)Cc3ccc(C(=O)c4ccccc4)cc3)cc2c1C` [Example M4-85, ethyl 3-methyl-5-(N-(4-benzoylbenzyl)-N-phenethylsulfamoyl)benzofuran-2-carboxylate], with 50 to 100 µM.
For `CCOC(=O)c1oc2ccc(S(=O)(=O)N(CCc3ccccc3)c3ccccc3)cc2c1C` [Example M8-10], the IC50 lay within 50 to 100 µM.
Molecule `CCOC(=O)c1oc2ccc(S(=O)(=O)N(CCc3ccccc3)c3ccc(Cc4ccccc4)cc3)cc2c1C` [Example M8-11, ethyl 3-methyl-5-(N-(4-benzylphenyl)-N-phenethylsulfamoyl)benzofuran-2-carboxylate] returned an IC50 of 50 to 100 µM.
Then `CCOC(=O)c1oc2ccc(S(=O)(=O)N(CCc3ccccc3)c3ccc(Oc4ccccc4)cc3)cc2c1C` [Example M8-12, ethyl 3-methyl-5-(N-(4-phenoxyphenyl)-N-phenethylsulfamoyl)benzofuran-2-carboxylate], with 50 to 100 µM; and `CCOC(=O)c1oc2ccc(S(=O)(=O)N(CCc3ccccc3)CCc3ccccc3)cc2c1C` [Example M8-13, ethyl 3-methyl-5-(N,N-diphenylethylsulfamoyl)benzofuran-2-carboxylate], with 50 to 100 µM.
Turning to `CCOC(=O)c1oc2ccc(S(=O)(=O)N(CCc3ccccc3)c3ccc(N4CCOCC4)cc3)cc2c1C` [Example M8-63, ethyl 3-methyl-5-(N-(4-morpholinophenyl)-N-phenethylsulfamoyl)benzofuran-2-carboxylate], the IC50 was in the range of 50 to 100 µM.
For the molecule `CCOC(=O)c1oc2ccc(S(=O)(=O)N(CCc3ccccc3)c3ccc(N4CCN(C)CC4)cc3)cc2c1C` [Example M8-64, ethyl 3-methyl-5-(N-(4-(4-methylpiperazin-1-yl)phenyl)-N-phenethylsulfamoyl)benzofuran-2-carboxylate], the IC50 fell in the range of 50 to 100 µM.
`CCOC(=O)c1oc2ccc(S(=O)(=O)N(CCc3ccccc3)c3ccc(N4CCN(C(=O)OC(C)(C)C)CC4)cc3)cc2c1C` [Example M8-65, ethyl 3-methyl-5-(N-(4-(4-(tert-butoxycarbonyl)piperazin-1-yl)phenyl)-N-phenethylsulfamoyl)benzofuran-2-carboxylate] gave an IC50 of 50 to 100 µM.
Then `CCOC(=O)c1oc2ccc(S(=O)(=O)N(CCc3ccccc3)c3ccc(N4CCN(C(=O)CC(C)(C)C)CC4)cc3)cc2c1C` [Example M8-66, ethyl 3-methyl-5-(N-(4-(4-(3,3-dimethylbutyryl)piperazin-1-yl)phenyl)-N-phenethylsulfamoyl)benzofuran-2-carboxylate], with 50 to 100 µM.
Then `CCCOC(=O)N1CCN(c2ccc(N(CCc3ccccc3)S(=O)(=O)c3ccc4oc(C(=O)OCC)c(C)c4c3)cc2)CC1` [Example M8-67, ethyl 3-methyl-5-(N-(4-(4-(propoxycarbonyl)piperazin-1-yl)phenyl)-N-phenethylsulfamoyl)benzo furan-2-carboxylate], with 50 to 100 µM.
On to `CCOC(=O)c1oc2ccc(S(=O)(=O)N(CCc3ccccc3)c3ccc(N4CCN(C(C)=O)CC4)cc3)cc2c1C` [Example M8-68, ethyl 3-methyl-5-(N-(4-(4-acetylpiperazin-1-yl)phenyl)-N-phenethylsulfamoyl)benzofuran-2-carboxylate], for which the IC50 is 50 to 100 µM.
Then `CCOC(=O)c1oc2ccc(S(=O)(=O)N(CCc3ccccc3)c3ccc(N4CCN(C(=O)c5ccccc5)CC4)cc3)cc2c1C` [Example M8-69, ethyl 3-methyl-5-(N-(4-(4-benzoylpiperazin-1-yl)phenyl)-N-phenethylsulfamoyl)-3-methylbenzofuran-2-carboxylate], with 50 to 100 µM; and `CCOC(=O)c1oc2ccc(S(=O)(=O)N(CCc3ccccc3)c3ccc(N4CCN(Cc5ccccc5)CC4)cc3)cc2c1C` [Example M8-70, ethyl 3-methyl-5-(N-(4-(4-benzylpiperazin-1-yl)phenyl)-N-phenethylsulfamoyl)benzofuran-2-carboxylate], with 50 to 100 µM.
Then `CCOC(=O)c1oc2ccc(S(=O)(=O)N(CCc3ccccc3)c3ccc(N4CCN(C(=O)N(C)C)CC4)cc3)cc2c1C` [Example M8-71, ethyl 3-methyl-5-(N-(4-(4-(dimethylcarbamoyl)piperazin-1-yl)phenyl)-N-phenethylsulfamoyl)benzofuran-2-carboxylate], with 50 to 100 µM.
Then `CCOC(=O)c1oc2ccc(S(=O)(=O)N(CCc3ccccc3)c3ccc(N4CCN(S(C)(=O)=O)CC4)cc3)cc2c1C` [Example M8-72, ethyl 3-methyl-5-(N-(4-(4-(methylsulfonyl)piperazin-1-yl)phenyl)-N-phenethylsulfamoyl)benzofuran-2-carboxylate], with 50 to 100 µM; and `CCOC(=O)c1oc2ccc(S(=O)(=O)N(CCc3ccccc3)c3ccc(N4CCN(C(=O)OC(C)(C)C)CC4)c(C(F)(F)F)c3)cc2c1C` [Example M8-74, ethyl 3-methyl-5-(N-(4-(4-(tert-butoxycarbonyl)piperazin-1-yl)-3-(trifluoromethyl)phenyl)-N-phenethylsulfamoyl)benzofuran-2-carboxylate], with 50 to 100 µM.
With `CCOC(=O)c1oc2ccc(S(=O)(=O)N(CCc3ccccc3)c3ccc(N4CCN(C(=O)OC(C)(C)C)CC4)nc3)cc2c1C` [Example M8-75, ethyl 3-methyl-5-(N-(6-(4-(tert-butoxycarbonyl)piperazin-1-yl)pyridin-3-yl)-N-phenethylsulfamoyl)benzofuran-2-carboxylate], the IC50 lay in the range of 50 to 100 µM.
Then `CCOC(=O)c1oc2ccc(S(=O)(=O)N(CCc3ccccc3)c3ccc(CN4CCN(C(=O)OC(C)(C)C)CC4)cc3)cc2c1C` [Example M8-76, ethyl 3-methyl-5-(N-(4-((4-(tert-butoxycarbonyl)piperazin-1-yl)methyl)phenyl)-N-phenethylsulfamoyl)benzofuran-2-carboxylate], with 50 to 100 µM; and `CCOC(=O)c1oc2ccc(S(=O)(=O)N(CCc3ccccc3)c3ccccc3N3CCN(C(=O)OC(C)(C)C)CC3)cc2c1C` [Example M8-77, ethyl 3-methyl-5-(N-(2-(4-(tert-butoxycarbonyl)piperazin-1-yl)phenyl)-N-phenethylsulfamoyl)benzofuran-2-carboxylate], with 50 to 100 µM; and `CCOC(=O)c1oc2ccc(S(=O)(=O)N(CCc3ccccc3)c3cccc(N4CCN(C)CC4)c3)cc2c1C` [Example M8-78, ethyl 3-methyl-5-(N-(3-(4-methylpiperazin-1-yl)phenyl)-N-phenethylsulfamoyl)benzofuran-2-carboxylate], with 50 to 100 µM.
Then `CCOC(=O)c1oc2ccc(S(=O)(=O)N(CCc3ccccc3)Cc3ccc(N4CCOCC4)cc3)cc2c1C` [Example M8-79, ethyl 3-methyl-5-(N-(4-morpholinobenzyl)-N-phenethylsulfamoyl)benzofuran-2-carboxylate], with 50 to 100 µM; and `CCOC(=O)c1oc2ccc(S(=O)(=O)N(CCc3ccccc3)Cc3ccc(N4CCN(C)CC4)cc3)cc2c1C` [Example M8-80, ethyl 3-methyl-5-(N-(4-(4-methylpiperazin-1-yl)benzyl)-N-phenethylsulfamoyl)benzofuran-2-carboxylate], with 50 to 100 µM.
Molecule `CCOC(=O)c1oc2ccc(S(=O)(=O)N(CCc3ccccc3)Cc3ccc(N4CCN(C(=O)OC(C)(C)C)CC4)cc3)cc2c1C` [Example M8-81, ethyl 3-methyl-5-(N-(4-(4-(tert-butoxycarbonyl)piperazin-1-yl)benzyl)-N-phenethylsulfamoyl)benzofuran-2-carboxylate] gave an IC50 of 50 to 100 µM.
Then `CCOC(=O)c1oc2ccc(S(=O)(=O)N(CCc3ccccc3)Cc3ccc(Oc4ccccc4)cc3)cc2c1C` [Example M8-86, ethyl 3-methyl-5-(N-phenethyl-N-(4-phenoxybenzyl)sulfamoyl)benzofuran-2-carboxylate], with 50 to 100 µM; and `CCOC(=O)c1oc2ccc(S(=O)(=O)N(CCc3ccccc3)Cc3ccccc3N3CCN(C(=O)OC(C)(C)C)CC3)cc2c1C` [Example M8-87, ethyl 3-methyl-5-(N-(2-(4-(tert-butoxycarbonyl)piperazin-1-yl)benzyl)-N-phenethylsulfamoyl)benzofuran-2-carboxylate], with 50 to 100 µM.
Then `CCOC(=O)c1oc2ccc(S(=O)(=O)N(CCc3ccccc3)Cc3cccc(N4CCN(C(=O)OC(C)(C)C)CC4)c3)cc2c1C` [Example M8-88, ethyl 3-methyl-5-(N-(3-(4-(tert-butoxycarbonyl)piperazin-1-yl)benzyl)-N-phenethylsulfamoyl)benzofuran-2-carboxylate], with 50 to 100 µM; and `CCOC(=O)c1oc2ccc(S(=O)(=O)N(CCc3ccccc3)c3ccccc3N3CCNCC3)cc2c1C` [Example M9-1, ethyl 3-methyl-5-(N-phenethyl-N-(2-(piperazin-1-yl)phenyl)sulfamoyl)benzofuran-2-carboxylate], with 50 to 100 µM.
